In assay [1] the test system is lung cancer cell line NCI-H23. Briefly: Minimal effective concentration that elicits polyploidy, NCI-H23. The conditions noted are these: Homo sapiens, read-out: MECP: Minimal effective concentration that elicits polyploidy. The assay is classed as cell-based.
Assay [2] deals with RPEMYC^H2B-GFP cells. Briefly: Mechanism-informed phenotypic screening assay (mitotic arrest, polyploidy; GE IN-Cell Analyzer 2000). The assay is classed as cell-based. As to conditions: 20 nM to 20 μM, 24, 48 or 72 hours, read-out: Min. Effective conc. for polyploidy (≥5%). An outline of the steps: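 RPEMYC^H2B-GFP cells expressing Histone 2B-EGFP were treated with compounds at 20 nM to 20 μM. Mitotic arrest and DNA content were imaged at 24, 48 or 72 h. Minimal effective concentrations eliciting polyploidy are given as letter bins.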

For assay [3], the system named is cervical cancer cell line Hela. Briefly: MTT assay of cellular proliferation, Hela. The assay is classed as cell-based. The conditions noted are these: Homo sapiens, read-out: EC50: Concentration that inhibits 50% of proliferation. An outline of the steps:
(§1)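 MTT viability assay in DMEM with 5% FBS. Cells seeded to 20–30% confluence were exposed to compound from 1 nM to 10 μM, then MTT was added for 3–4 h and formazan was read at 570 nm. EC50 is the concentration giving 50% inhibition of proliferation.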

Assay [4] concerns gastric cancer cell line NCI-N87. Briefly: MTT assay of cellular proliferation, NCI-N87. The assay is classed as cell-based. As to conditions: Homo sapiens, read-out: EC50: Concentration that inhibits 50% of proliferation. An outline of the steps: as §1
Background: Tetrazolium dyes change colour on reduction, which living cells bring about.

Assay [5] shares this test system. Briefly: Minimal effective concentration that elicits polyploidy, NCI-N87. The assay is classed as cell-based. As to conditions: Homo sapiens, read-out: MECP: Minimal effective concentration that elicits polyploidy.
Assay [6] concerns lung cancer cell line A549. Briefly: MTT assay of cellular proliferation, A549. The assay is classed as cell-based. As to conditions: Homo sapiens, read-out: EC50: Concentration that inhibits 50% of proliferation. The method, boiled down:
as §1

Assay [7] has as its system liver cancer cell line T2 HCC. Briefly: Minimal effective concentration that elicits polyploidy, T2 HCC. As to conditions: Mus musculus, read-out: MECP: Minimal effective concentration that elicits polyploidy. The assay is classed as cell-based.
Assay [8] deals with RPEMYC^H2B-GFP cells. Briefly: Mechanism-informed phenotypic screening assay (mitotic arrest, polyploidy; GE IN-Cell Analyzer 2000). The assay is classed as cell-based. The conditions noted are these: 20 nM to 20 μM, 24, 48 or 72 hours, read-out: Mitotic Arrest (≥5%).
In assay [9] the test system is colon cancer cell line HCT116. Briefly: MTT assay of cellular proliferation, HCT116. The conditions noted are these: Homo sapiens, HCT-116, read-out: EC50: Concentration that inhibits 50% of proliferation. The assay is classed as cell-based. The method, boiled down: as §1
Assay [10] concerns lung cancer cell line NCI-H23. Briefly: MTT assay of cellular proliferation, NCI-H23. The class given is cell-based. The conditions noted are these: Homo sapiens, read-out: EC50: Concentration that inhibits 50% of proliferation. An outline of the steps: as §1
Assay [11] deals with SW480. Briefly: Minimal effective concentration that elicits polyploidy, SW480. The class given is cell-based. As to conditions: Homo sapiens, read-out: MECP: Minimal effective concentration that elicits polyploidy.
The test system of assay [12] is lung cancer cell line A549. Briefly: Minimal effective concentration that elicits polyploidy, A549. The class given is cell-based. The conditions noted are these: Homo sapiens, read-out: MECP: Minimal effective concentration that elicits polyploidy.
The subject of assay [13] is human lung adenocarcinoma cell line NCI-H23. Briefly: Xenograft assay, NCI-H23. The assay is classed as in vivo. As to conditions: NCI-H23 subcutaneous xenograft, Nu/Nu mice, oral gavage twice a day for 9 days, FIG. 3. How it is done: (§2) Xenografts were initiated in immunocompromised (Nu/Nu) mice with the human lung adenocarcinoma cell line NCI-H23 (FIG. 3) and the human colon cancer cell line HCT116 (FIG. 4). Five million cells were injected subcutaneously into each mouse and treatment was initiated when the average tumor volumes reached 150 mm3 (n=5/groups). Tumor-bearing mice were randomized into different groups to receive either vehicle or indicated compounds. The compounds were administered through oral gavage twice a day for 9 days. Day 0 on the x-axis indicates the day that treatment was initiated. For these experiments, all compounds were first dissolved in DMSO and then diluted 1:10 into a mixture containing 50% PEG300 and 49% PBS, 1% Tween 80, pH2.2. 100 ul of drug solution was administered with each dose. Tumor volumes were determined once every three days and are calculated from digital caliper raw data by using the formula: Volume (mm3)=(L×W^2)/2. The value W (Width) is the smaller of two perpendicular tumor axes and the value L (Length) is the larger of two perpendicular axes. Mean tumor volume growth curves and means are calculated for each treatment group.

For assay [14], the system named is human colon cancer cell line HCT116. Briefly: Xenograft assay, HCT116. The assay is classed as in vivo. As to conditions: HCT116 subcutaneous xenograft, Nu/Nu mice, oral gavage twice a day for 9 days, FIG. 4. How it is done:
as §2

For assay [15], the system named is colon cancer cell line HCT116. Briefly: Minimal effective concentration that elicits polyploidy, HCT116. The class given is cell-based. As to conditions: Homo sapiens, HCT-116, read-out: MECP: Minimal effective concentration that elicits polyploidy.
In assay [16] the test system is breast cancer cell line MDA-MB-231. Briefly: Minimal effective concentration that elicits polyploidy, MDA-MB-231. As to conditions: Homo sapiens, read-out: MECP: Minimal effective concentration that elicits polyploidy. The assay is classed as cell-based.
For assay [17], the system named is liver cancer cell line T2 HCC. Briefly: MTT assay of cellular proliferation, T2 HCC. The class given is cell-based. As to conditions: Mus musculus, read-out: EC50: Concentration that inhibits 50% of proliferation. The method, boiled down: as §1
In assay [18] the test system is breast cancer cell line MDA-MB-231. Briefly: MTT assay of cellular proliferation, MDA-MB-231. The class given is cell-based. As to conditions: Homo sapiens, read-out: EC50: Concentration that inhibits 50% of proliferation. The method, boiled down: as §1
Assay [19] relates to colon cancer cell line SW460. Briefly: MTT assay of cellular proliferation, SW460. The conditions noted are these: Homo sapiens, SW480; read-out: EC50: Concentration that inhibits 50% of proliferation. The assay is classed as cell-based. An outline of the steps:
as §1

In assay [20] the test system is cervical cancer cell line Hela. Briefly: Minimal effective concentration that elicits polyploidy, Hela. The class given is cell-based. As to conditions: Homo sapiens, read-out: MECP: Minimal effective concentration that elicits polyploidy.

Entries after “also recorded” stand apart in the source; their conditions may differ. Like-named read-outs stand apart in the source and are kept apart here.

Take `COc1cc(Oc2ncccc2-c2ccncc2)cc(-n2cccn2)c1` [Compound 10, 2-(3-methoxy-5-(1H-pyrazol-1-yl)phenoxy)-3,4′-bipyridine]: the minimal effective concentration is 0.001 to 1 µM in assay [1]; 1 µM in [2]; 0.001 to 1 µM in [5]; 0.001 to 1 µM in [7]; 1 µM in assay [8]; 0.001 to 1 µM in assay [11]. Further, the minimal effective concentration in [12], in [15], in assay [16] and in [20] was 0.001 to 1 µM in each case. In addition, the EC50 in [3], in [4], in [6], in assay [9], in assay [10] and in assay [17] was 1 to 1000 nM each time. Also, the EC50 in assay [18] and in [19] was 1 to 1000 nM in each case. The “tumor growth (tumor volume)” value in assay [13] and in assay [14] was “suppress the growth; also recorded: suppressing the tumor growth” in each case.
In the case of `CNC(=O)c1cc(Oc2ncccc2-c2ccnc(OC)c2)cc(OC(F)(F)F)c1` [Compound 29, 3-((2′-methoxy-[3,4′-bipyridin]-2-yl)oxy)-N-methyl-5-(trifluoromethoxy)benzamide], the minimal effective concentration in assay [1] was 0.001 to 1 µM; in [2], 1 µM; in [5], 0.001 to 1 µM; in [7], 0.001 to 1 µM; in assay [8], 1 µM; in assay [11], 0.001 to 1 µM. The minimal effective concentration in assay [12], in [15], in [16] and in [20] was 0.001 to 1 µM each time. For the same molecule, the EC50 in assay [3], in [4], in assay [6], in [9], in [10] and in assay [17] was 1 to 1000 nM throughout. The EC50 in [18] and in assay [19] was 1 to 1000 nM throughout. The “tumor growth (tumor volume)” value in assay [13] and in assay [14] was “suppress the growth; also recorded: suppressing the tumor growth” each time.

The values are drawn from patent publication US20240262803A1, “COMPOUNDS, COMPOSITIONS AND METHODS OF TREATING DISORDERS” (Chungdu Anticancer Bioscience Ltd, priority 2021, published 2024).
